Results taken from patent US8124793B2, “Derivatives of ethylene methanedisulfonate as cancer chemotherapeutic agents” (priority 2007, dated 2012).

Assays:
Assay type in all cases: cell-based
SR = experiment: NCI screen, growth of human tumor cells: Leukemia SR; conditions: SR (Leukemia), 10^−4 molar
In short: (§1)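 At least 60 data points describe each compound tested by NCI. Cancer type, molar concentration in the screen and percent growth make up the recorded data.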

M14 = experiment: NCI screen, growth of human tumor cells: Melanoma M14; conditions: M14 (Melanoma), 10^−4 molar
Experimental: (§2) In the NCI screening process, each compound was tested and described by a minimum of 60 data points. The test data include, but are not limited to the type of cancer, the molar concentration used in the screen, and the percent growth of the cancer. In some cases, NMR and elemental analysis were used for structural assignment.

NCI-H23 = experiment: NCI screen, growth of human tumor cells: Non-Small Cell Lung NCI-H23; conditions: NCI-H23 (Non-Small Cell Lung), 10^−4 molar
Experimental: as §2

K562 = experiment: NCI screen, growth of human tumor cells: Leukemia K562; conditions: K562 (Leukemia), 10^−4 molar
In short: as §1

HS 578T = experiment: NCI screen, growth of human tumor cells: Breast Cancer HS 578T; conditions: HS 578T (Breast Cancer), 10^−4 molar
Experimental: as §2

OVCAR-3 = experiment: NCI screen, growth of human tumor cells: Ovarian Cancer OVCAR-3; conditions: OVCAR-3 (Ovarian Cancer), 10^−4 molar
Experimental: as §2

MDA-MB-435 = experiment: NCI screen, growth of human tumor cells: Breast Cancer MDA-MB-435; conditions: MDA-MB-435, 10^−4 molar
Experimental: as §2

DU-145 = experiment: NCI screen, growth of human tumor cells: Prostate Cancer DU-145; conditions: DU-145 (Prostate Cancer), 10^−4 molar
Experimental: as §2

SK-MEL-5 = experiment: NCI screen, growth of human tumor cells: Melanoma SK-MEL-5; conditions: SK-MEL-5 (Melanoma), 10^−4 molar
Experimental: as §2

LOXIMVI = experiment: NCI screen, growth of human tumor cells: Melanoma LOXIMVI; conditions: LOXIMVI (Melanoma), 10^−4 molar
Experimental: as §2

HOP-92 = experiment: NCI screen, growth of human tumor cells: Non-Small Cell Lung HOP-92; conditions: HOP-92 (Non-Small Cell Lung), 10^−4 molar
In short: as §1

HOP-62 = experiment: NCI screen, growth of human tumor cells: Non-Small Cell Lung HOP-62; conditions: HOP-62 (Non-Small Cell Lung), 10^−4 molar
Experimental: as §2

MCF7/ADR-RES = experiment: NCI screen, growth of human tumor cells: Breast Cancer MCF7/ADR-RES; conditions: MCF7/ADR-RES (Breast Cancer), 10^−4 molar
Experimental: as §2

UACC-257 = experiment: NCI screen, growth of human tumor cells: Melanoma UACC-257
Experimental: as §2

SF-268 = experiment: NCI screen, growth of human tumor cells: CNS Cancer SF-268; conditions: SF-268 (CNS Cancer), 10^−4 molar
Experimental: as §2

SF-295 = experiment: NCI screen, growth of human tumor cells: CNS Cancer SF-295; conditions: SF-295 (CNS Cancer), 10^−4 molar
Experimental: as §2

MDA-MB-231/ATCC = experiment: NCI screen, growth of human tumor cells: Breast Cancer MDA-MB-231/ATCC; conditions: MDA-MB-231/ATCC (Breast Cancer), 10^−4 molar
Experimental: as §2

UO-31 = experiment: NCI screen, growth of human tumor cells: Renal Cancer UO-31; conditions: UO-31 (Renal Cancer), 10^−4 molar
Experimental: as §2

PC-3 = experiment: NCI screen, growth of human tumor cells: Prostate Cancer PC-3; conditions: PC-3 (Prostate Cancer), 10^−4 molar
Experimental: as §2

OVCAR-4 = experiment: NCI screen, growth of human tumor cells: Ovarian Cancer OVCAR-4; conditions: OVCAR-4 (Ovarian Cancer), 10^−4 molar
Experimental: as §2

HCT-15 = experiment: NCI screen, growth of human tumor cells: Colon Cancer HCT-15
Experimental: as §2

UACC-62 = experiment: NCI screen, growth of human tumor cells: Melanoma UACC-62
Experimental: as §2

human cancer cells = experiment: NCI screen summary over the cancers tested (negative growth of human cancer cells); conditions: 10^−4 M conc.; cancers with negative growth / cancers tested
Experimental: as §2
The derivatives in the tables are grouped using the same category as in the tables 1-6.

U-251 = experiment: NCI screen, growth of human tumor cells: CNS Cancer U-251
Experimental: as §2

OVCAR-8 = experiment: NCI screen, growth of human tumor cells: Ovarian Cancer OVCAR-8; conditions: OVCAR-8 (Ovarian Cancer), 10^−4 molar
Experimental: as §2

NCI-H460 = experiment: NCI screen, growth of human tumor cells: Non-Small Cell Lung NCI-H460; conditions: NCI-H460 (Non-Small Cell Lung), 10^−4 molar
In short: as §1

SW620 = experiment: NCI screen, growth of human tumor cells: Colon Cancer SW620; conditions: SW620 (Colon Cancer), 10^−4 molar
Experimental: as §2

HL-60 (TB) = experiment: NCI screen, growth of human tumor cells: Leukemia HL-60 (TB); conditions: HL-60 (TB) (Leukemia), 10^−4 molar
Experimental: as §2

MCF 7 = experiment: NCI screen, growth of human tumor cells: Breast Cancer MCF 7; conditions: MCF 7 (Breast Cancer), 10^−4 molar
Experimental: as §2

SF-539 = experiment: NCI screen, growth of human tumor cells: CNS Cancer SF-539; conditions: SF-539 (CNS Cancer), 10^−4 molar
Experimental: as §2

SN12C = experiment: NCI screen, growth of human tumor cells: Renal Cancer SN12C; conditions: SN12C (Renal Cancer), 10^−4 molar
Experimental: as §2

CAKI-1 = experiment: NCI screen, growth of human tumor cells: Renal Cancer CAKI-1; conditions: CAKI-1 (Renal Cancer), 10^−4 molar
Experimental: as §2

BT-549 = experiment: NCI screen, growth of human tumor cells: Breast Cancer BT-549; conditions: BT-549 (Breast Cancer), 10^−4 molar
Experimental: as §2

HCT-116 = experiment: NCI screen, growth of human tumor cells: Colon Cancer HCT-116; conditions: HCT-116, 10^−4 molar
Experimental: as §2

SK-MEL-28 = experiment: NCI screen, growth of human tumor cells: Melanoma SK-MEL-28; conditions: SK-MEL-28 (Melanoma), 10^−4 molar
Experimental: as §2

RXF-393 = experiment: NCI screen, growth of human tumor cells: Renal Cancer RXF-393; conditions: RXF-393 (Renal Cancer), 10^−4 molar
Experimental: as §2

ACHN = experiment: NCI screen, growth of human tumor cells: Renal Cancer ACHN; conditions: ACHN (Renal Cancer), 10^−4 molar
In short: as §1

RPMI-8226 = experiment: NCI screen, growth of human tumor cells: Leukemia RPMI-8226; conditions: RPMI-8226 (Leukemia), 10^−4 molar
Experimental: as §2

COLO205 = experiment: NCI screen, growth of human tumor cells: Colon Cancer COLO205; conditions: COLO205 (Colon Cancer), 10^−4 molar
Experimental: as §2

IGROVI = experiment: NCI screen, growth of human tumor cells: Ovarian Cancer IGROVI; conditions: IGROVI (Ovarian Cancer), 10^−4 molar
Experimental: as §2

KM12 = experiment: NCI screen, growth of human tumor cells: Colon Cancer KM12; conditions: KM12 (Colon Cancer), 10^−4 molar
Experimental: as §2

CCRF-CEM = experiment: NCI screen, growth of human tumor cells: Leukemia CCRF-CEM; conditions: CCRF-CEM (Leukemia), 10^−4 molar
In short: as §1

SNB-19 = experiment: NCI screen, growth of human tumor cells: CNS Cancer SNB-19; conditions: SNB-19 (CNS Cancer), 10^−4 molar
Experimental: as §2

786-0 = experiment: NCI screen, growth of human tumor cells: Renal Cancer 786-0; conditions: 786-0 (Renal Cancer), 10^−4 molar
Experimental: as §2

NCI-H226 = experiment: NCI screen, growth of human tumor cells: Non-Small Cell Lung NCI-H226; conditions: NCI-H226 (Non-Small Cell Lung), 10^−4 molar
Experimental: as §2

HT29 = experiment: NCI screen, growth of human tumor cells: Colon Cancer HT29; conditions: HT29 (Colon Cancer), 10^−4 molar
Experimental: as §2

OVCAR-5 = experiment: NCI screen, growth of human tumor cells: Ovarian Cancer OVCAR-5; conditions: OVCAR-5 (Ovarian Cancer), 10^−4 molar
Experimental: as §2

SMILES | percent of growth of human tumor cells (SR) [%] | percent of growth of human tumor cells (NCI-H23) [%] | percent of growth of human tumor cells (K562) [%] | percent of growth of human tumor cells (HS 578T) [%] | percent of growth of human tumor cells (DU-145) [%] | percent of growth of human tumor cells (HOP-92) [%] | percent of growth of human tumor cells (HOP-62) [%] | percent of growth of human tumor cells (MCF7/ADR-RES) [%] | percent of growth of human tumor cells (SF-268) [%] | percent of growth of human tumor cells (MDA-MB-231/ATCC) [%] | percent of growth of human tumor cells (UO-31) [%] | percent of growth of human tumor cells (PC-3) [%] | Percentage of cancers showing negative growth cancers tested (human cancer cells) | percent of growth of human tumor cells (OVCAR-8) [%] | percent of growth of human tumor cells (NCI-H460) [%] | percent of growth of human tumor cells (SW620) [%] | percent of growth of human tumor cells (MCF 7) [%] | percent of growth of human tumor cells (SF-539) [%] | percent of growth of human tumor cells (SN12C) [%] | percent of growth of human tumor cells (BT-549) [%] | other results
O=C1C(Cl)=C(C2S(=O)(=O)OCCOS2(=O)=O)C(=O)c2ccccc21 [NSC 731260, ethylene 3-chloro-1,4-naphtho-2-quinoylmethanedisulfonate] | 15 | −54 | 20 | 8 | 12 | −3 | −56 | 25 | 10 | −15 | 30 | 9 | 10^−4 M conc. = 16/37 = 43% | 18 | 4 | 1 | 6 | 1 | −12 | −32 | percent of growth of human tumor cells (M14): −58%; percent of growth of human tumor cells (OVCAR-3): 28%; % Growth (MDA-MB-435): −79%; percent of growth of human tumor cells (SK-MEL-5): −54%; percent of growth of human tumor cells (LOXIMVI): −43%; % Growth (UACC-257; UACC-257, 10^−4 molar): −74%; percent of growth of human tumor cells (SF-295): −46%; percent of growth of human tumor cells (OVCAR-4): 11%; percent of growth of human tumor cells (HCT-15; HCT-15 (Colon Cancer), 10^−4 molar): 17%; % Growth (UACC-62; UACC-62, 10^−4 molar): −86%; percent of growth of human tumor cells (U-251; U-251 (CNS Cancer), 10^−4 molar): 2%; percent of growth of human tumor cells (HL-60 (TB)): 13%; percent of growth of human tumor cells (CAKI-1): 18%; % Growth (HCT-116): −89%; percent of growth of human tumor cells (SK-MEL-28): −5%; percent of growth of human tumor cells (RXF-393): 28%; percent of growth of human tumor cells (ACHN): −12%; percent of growth of human tumor cells (RPMI-8226): −36%
CC=CC(=O)C1(Cc2ccc3c(c2)C(=O)c2ccccc2C3=O)S(=O)(=O)OCCOS1(=O)=O [NSC 731263] | 24 | 31 | 12 | −18 | 1 | −16 | −38 | 11 | −24 | −33 | 1 | 11 | 10^−4 M conc. = 18/36 = 50% | −39 | 2 | −38 | −17 | −23 | −53 | −20 | percent of growth of human tumor cells (COLO205): 5%; percent of growth of human tumor cells (IGROVI): 3%; percent of growth of human tumor cells (UACC-257; UACC-257 (Melanoma), 10^−4 molar): −20%; percent of growth of human tumor cells (KM12): 2%; percent of growth of human tumor cells (CCRF-CEM): 15%; percent of growth of human tumor cells (SNB-19): 10%; percent of growth of human tumor cells (786-0): 1%; percent of growth of human tumor cells (NCI-H226): 10%; % Growth (HCT-15; HCT-15, 10^−4 molar): −65%; percent of growth of human tumor cells (UACC-62; UACC-62 (Melanoma), 10^−4 molar): 16%; % Growth (U-251; U251, 10^−4 molar): −85%; percent of growth of human tumor cells (HT29): 1%; percent of growth of human tumor cells (OVCAR-5): 20%; % Growth (HCT-116): −100%; percent of growth of human tumor cells (SK-MEL-28): −23%; percent of growth of human tumor cells (RXF-393): −45%; percent of growth of human tumor cells (RPMI-8226): −7%
